Read-outs that look alike come from different tables or passages of the source.
Assays:
[1] = target: T1, BuChE from horse serum (eqBuChE) (Equus caballus, UniProt P81908); test: biochemical; settings: mean ± SEM
T1 construct: BuChE from horse serum (lyophilized powder, Sigma-Aldrich); purchased Sigma-Aldrich; host or cells: horse serum
Experimental: The % inhibitory activity on BuChE from horse serum (lyophilized powder, Sigma-Aldrich), was evaluated spectrophotometrically by the method of Ellman et al.. BuChE stock solutions were first dissolved in 0.1 M phosphate buffer (pH 8.0) and then aliquoted in small vials. Compounds were dissolved in DMSO at 10 mM. The reaction was carried out in a final volume of 3 mL of a 0.1 M phosphate-buffered solution at pH 8.0, containing 5,5′-dithiobis-2-nitrobenzoic acid (DTNB, 2625 µL, 0.35 mM, final concentration), eqBuChE (60 µL, 0.05 U/mL final concentration), tested compound (3 µL, 10 µM, final concentration) and 1% w/v Bovine Serum Albumin phosphate-buffered (pH 8.0) solution (BSA, 40 µL). The inhibition with respect to control without compound was determined by pre-incubating this mixture at rt with each compound for 10 min. After this period, butyrylthiocholine iodide (150 µL, 0.5 mM final concentration) was added and incubated for 15 min at rt.

[2] = target: AChE from Electrophorus electricus (EeAChE) (Electrophorus electricus, UniProt O42275); test: biochemical
Experimental: The inhibitory activity on AChE from Electrophorus electricus (type VI-S, Sigma, Milan, Italy), was evaluated spectrophotometrically by the method of Ellman et al.. AChE stock solution was prepared by dissolving EeAChE lyophilized powder (Sigma) in 0.1 M phosphate buffer (pH = 8.0) containing 0.1% Triton X-100. Stock solutions of the tested compounds (1 mM) were prepared in MeOH/H2O 50/50 (v/v) and diluted in MeOH/H2O 50/50 (v/v). […] Assay solutions with and without inhibitor were preincubated at 37 °C for 20 min followed by the addition of substrate. Blank solutions containing all components except EeAChE were prepared in parallel to account for the non-enzymatic hydrolysis of the substrate. Initial rate assays were performed at 37 °C with a Jasco V-530 double beam spectrophotometer. […] The velocity in the presence and absence of inhibitor were compared and % inhibition was calculated. The results were plotted by placing the percentage of inhibition in function of the decimal log of the final inhibitor concentration. Linear regression and IC50 values were calculated using Microcal Origin 3.5 software (Microcal Software, […]).

EeAChE = target: T2, EeAChE (Electrophorus electricus, UniProt O42275); test: Kinetic analysis of the inhibition of EeAChE (Lineweaver-Burk, Dixon, Cornish-Bowden plots); type: biochemical
T2 construct: purchased Sigma type VI-S
Experimental: . […] The non-competitive mechanism of action was confirmed by building the Cornish-Bowden plot (Figure 3B). Replots of the substrate/velocity versus the concentration of compound 8 provided an estimate of the non-competitive inhibition constant, which resulted equal to 4.10 μM. The non-competitive mechanism of action was confirmed by computational chemistry by performing the docking analysis of both enantiomers of compound 8 on AChE (see Supplementary Materials).
[…]. Four concentrations of inhibitor were selected for this study: 0.850, 2.124, 3.399, 6.798 μM. The plots were assessed by a weighted least-squares analysis that assumed the variance of the velocity (v) to be a constant percentage of v for the entire data set. Data analysis was performed with GraphPad Prism 4.03 software (GraphPad Software Inc., San Diego, CA, USA). The determination of the non-competitive inhibition constant Ki value was carried out using Dixon plot, i.e., plotting the apparent 1/v vs. inhibitor concentration [I] [34] and confirmed by Cornish-Bowden plot ([substrate]/v vs. [I]).

HepG2 cells = type: cell-based; settings: for Cell viability (MTT reduction, % control): 24 h, mean ± S.E.M.; for hepatotoxicity on HepG2 cells (in words): cell viability assay, 1–1000 µM
Experimental: The human hepatoma HepG2 line cells were purchased from American Type Culture Collection. The cells were cultured in Eagle’s Minimum Essential Medium (Ozyme, Montigny-le-Bretonneux, France) supplemented with 10% fetal bovine serum, 1X non-essential amino acids, 100 units/mL penicillin and […] streptomycin (Dutscher, Brumath, France). […] Prior to the experiment, cells were seeded in 96-well culture plates at a density of 0.1 × 10^6 cells per well. After 24 h of incubation, the culture medium was refreshed and 100 µL of the test compounds or DMSO (0.1%) were added. Compounds were tested at 7 concentrations (1–1000 µM) in triplicate.
Cell viability, measured as the mitochondrial activity of living cells, was determined by quantitative colorimetric assay with 3-[4,5 dimethylthiazol-2-yl]-2,5-diphenyl-tetrazolium bromide (MTT). Briefly, after 24 h of treatment, cells were incubated with 50 µL MTT (0.5 mg/mL, Sigma Aldrich) at 37 °C for 2 h. Plates were centrifuged, MTT was removed and 100 µL DMSO was distributed per well. The absorbance was read at 570 nm by microplate spectrophotometry. Cell viability was expressed as percentage over controls (DMSO, 0.1%).

[3] = Oxygen radical absorbance capacity by fluorescence (ORAC-FL); settings: Trolox equivalents, mean ± SD
Experimental: The antioxidant power of the imidazopyranotacrines 1–13 was determined by the oxygen radical absorbance capacity by fluorescence (ORAC-FL) method using fluorescein as fluorescent probe and Trolox (6-hydroxy-2,5,7,8-tetramethylchroman-2-carboxylic acid) as a reference compound. Results are expressed as Trolox equivalents (μmol Trolox per μmol test compound).
The radical scavenging activity of imidazopyranotacrines 1–13 was determined by the ORAC-FL method using a Varioskan Flash plate reader with built-in injectors (Thermo Scientific). Trolox, 2,2′-azobis(amidinopropane) dihydrochloride (AAPH) and fluorescein (FL) were purchased from Sigma-Aldrich. The reaction was performed at 37 °C in 75 mM phosphate buffer (pH = 7.4), and the final volume reaction mixture was 200 µL. The final concentrations were 1–8 µM for Trolox and 0.1–1 µM for the tested compounds. Briefly, in a black 96-well microplate (Nunc), antioxidant (20 µL) and fluorescein (120 µL) were incubated for 15 min at 37 °C. Then, 2,2′-azobis(amidinopropane) dihydrochloride (60 µL) was added using the built-in injector. […] All assays were made in triplicate and at least three different assays were performed for each sample.
The net AUC corresponding to a sample was calculated as follows: Net AUC = AUCantioxidant − AUCblank(2)
Regression equations were calculated by plotting the net AUC against the antioxidant concentration. The ORAC value was obtained by dividing the slope of the latter curve by the slope of the Trolox curve obtained in the same assay. ORAC values was expressed as µmol of Trolox equivalent/µmol of imidazopyranotacrines. Data are expressed as mean ± SD.

[4] = ORAC-FL, Trolox equivalents, cited from earlier work

T2 sequence (O42275 24-633): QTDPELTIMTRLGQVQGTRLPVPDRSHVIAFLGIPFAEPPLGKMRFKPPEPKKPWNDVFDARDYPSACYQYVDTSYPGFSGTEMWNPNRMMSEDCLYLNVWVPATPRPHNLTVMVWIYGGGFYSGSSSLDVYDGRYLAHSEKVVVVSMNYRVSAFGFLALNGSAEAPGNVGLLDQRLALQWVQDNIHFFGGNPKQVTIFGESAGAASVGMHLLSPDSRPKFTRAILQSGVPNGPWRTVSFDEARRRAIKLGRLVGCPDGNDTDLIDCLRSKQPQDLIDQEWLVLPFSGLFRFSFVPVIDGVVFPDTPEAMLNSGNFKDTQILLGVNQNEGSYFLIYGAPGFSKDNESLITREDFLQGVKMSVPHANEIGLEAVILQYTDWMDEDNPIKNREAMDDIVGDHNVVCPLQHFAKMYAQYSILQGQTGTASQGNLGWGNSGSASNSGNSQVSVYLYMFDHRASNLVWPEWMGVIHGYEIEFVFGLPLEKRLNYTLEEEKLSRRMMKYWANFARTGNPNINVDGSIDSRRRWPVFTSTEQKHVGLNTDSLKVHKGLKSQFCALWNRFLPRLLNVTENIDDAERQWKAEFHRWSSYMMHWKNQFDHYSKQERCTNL
Chain of AChE from Electrophorus electricus (EeAChE) (O42275 24-633): as above
T1 sequence (P81908 whole entry): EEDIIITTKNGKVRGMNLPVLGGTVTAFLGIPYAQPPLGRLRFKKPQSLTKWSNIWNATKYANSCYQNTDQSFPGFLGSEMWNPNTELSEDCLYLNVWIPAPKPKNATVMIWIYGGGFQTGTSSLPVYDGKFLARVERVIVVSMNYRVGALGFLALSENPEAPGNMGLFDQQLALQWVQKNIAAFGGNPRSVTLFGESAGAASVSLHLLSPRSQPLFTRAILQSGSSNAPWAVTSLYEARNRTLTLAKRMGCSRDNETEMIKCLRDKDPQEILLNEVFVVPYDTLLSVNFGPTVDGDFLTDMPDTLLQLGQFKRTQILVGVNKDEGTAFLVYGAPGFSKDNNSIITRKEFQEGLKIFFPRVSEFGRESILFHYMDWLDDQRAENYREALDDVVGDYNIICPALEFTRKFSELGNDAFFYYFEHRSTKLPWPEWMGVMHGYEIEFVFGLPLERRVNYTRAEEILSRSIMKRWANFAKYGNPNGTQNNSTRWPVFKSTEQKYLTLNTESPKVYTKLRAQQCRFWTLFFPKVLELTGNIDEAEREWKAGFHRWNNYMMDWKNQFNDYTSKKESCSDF

SMILES | inhibition at 10 µM [1] [%] | IC50 [2] [µM] | mechanism of inhibition of EeAChE (EeAChE; Km unaltered, Vmax decreased) | Ki (EeAChE; substrate acetylthiocholine, estimate from Cornish-Bowden plot, read-out: non-competitive inhibition constant (Ki)) [µM] | Cell viability (MTT reduction, % control) (HepG2 cells; HepG2, 1 µM) [% control] | Cell viability (MTT reduction, % control) (HepG2 cells; HepG2, 3 µM) [% control] | Cell viability (MTT reduction, % control) (HepG2 cells; HepG2, 10 µM) [% control] | Cell viability (MTT reduction, % control) (HepG2 cells; HepG2, 30 µM) [% control] | Cell viability (MTT reduction, % control) (HepG2 cells; HepG2, 100 µM) [% control] | Cell viability (MTT reduction, % control) (HepG2 cells; HepG2, 300 µM) [% control] | Cell viability (MTT reduction, % control) (HepG2 cells; HepG2, 1000 µM) [% control] | hepatotoxicity on HepG2 cells (in words) (HepG2 cells) | ORAC [3] [µmol Trolox/µmol compound] | ORAC [4] | ORAC ([4]; listed as tacrine) [µmol Trolox/µmol compound]
Cn1ccnc1C1c2c(nc3c(c2N)CCCC3)Oc2ccc3ccccc3c21 (centres unmarked) [Compound 8, 14-(1-Methyl-1H-imidazol-2-yl)-9,11,12,14-tetrahydro-10H-benzo[5,6]chromeno[2,3-b]quinolin-13-amine] | 51.6 ± 0.6 | 6.73 ± 0.52 | non-competitive | 4.1 | 108.1 ± 5.4 | 101.3 ± 10.8 | 79.0 ± 9.1 | 57.6 ± 4.2 | 52.7 ± 3.3 | 51.2 ± 2.8 | 66.2 ± 6.8 | more toxic than tacrine | 1.88 ± 0.01 |  | 
Nc1c2c(nc3ccccc13)CCCC2 [Tacrine] |  |  |  |  | 95.8 ± 2.2 | 100.4 ± 2.2 | 96.9 ± 3.9 | 97.7 ± 3.9 | 98.6 ± 3.8 | 39.2 ± 4.7 | 20.0 ± 2.1 | safe up to 100 µM |  | 0.20 ± 0.04 [28] µmol Trolox/µmol compound | 0.20 ± 0.04

Reference: PMC6273229, “Imidazopyranotacrines as Non-Hepatotoxic, Selective Acetylcholinesterase Inhibitors, and Antioxidant Agents for Alzheimer′s Disease Therapy” (Molecules, 2016)
